One may read the Inhibition as the share of the control response that was lost under treatment. A lower Inhibition goes with a response near the control.

This note sets out measurements from patent US20210087159A1, “TETRAHYDROCANNABINOLIC- CA[…] DERIVATIVES AND USES THEREOF” (AL&AM […]., priority 2018, published 2021).

What all share (type): cell-based
The subject of assay [1] is OMP-2, multiple myeloma. The assay can be described thus: CellTiter-Glo cell viability assay, cancer cell cytotoxicity/anti-proliferation panel (Chempartner). Conditions: for IC50: 72 h, read-out: IC50 (absolute IC50); for Inhibition: OMP-2, 72 hours, compounds 10 μM starting, STS 2 μM starting, 10-pt, 3-fold dilution.
Assay [2] concerns T47D, breast ductal carcinoma. Described as above. The following applies: for IC50: Homo sapiens; for Inhibition: compounds 10 μM starting, STS 2 μM starting.
The subject of assay [3] is TNF-α. The assay can be described thus: LPS induced cytokine release assay, TNF-α by ELISA in PBMCs. The following applies: human PBMCs; for TNF-α: 72 h, ELISA (LPS control 18.16); for change of TNF-α expression in LPS-treated cells: tested concentrations of 1 M and 10 M (so in the source). The source says:
This study was aimed to test the effect of 12 compounds (THCA, Ia1, Ia5, Ia6, Ia9, Ia11, Ia15, Ia17, Ia24, Ia25, Ia27, and Ia28) on human peripheral blood mononuclear cells (PBMCs) challenged by lipopolysaccharide (LPS) through monitoring multiple inflammatory endpoints.
Blood samples were collected from healthy volunteers according to protocols that have been reviewed and approved by the Chempartner Institutional Ethic Committee (IEC) upon signing an Informed Consent Form (ICF).
Fresh PBMCs were isolated and seeded into 96-well plate, and diluted solutions of the tested compounds and 0.1 μg/mL LPS were then added (in triplicates). To serve as control, 3 wells with PBMCs only, 3 wells with 0.1 μg/mL LPS, and 2 wells with 1 μg/mL dexamethasone (Dex) and 0.1 μg/mL LPS were included. After 72 hours incubation, supernatant was collected for tumor necrosis factor-α (TNF-α) measurement by enzyme-linked immunosorbent assay (ELISA), and cell pellets were harvested for cell proliferation measurement by CellTiter-Glo® Luminescent Cell Viability Assay (CTG).
The human blood sample from an individual donor was diluted by the same volume of sterile phosphate buffered solution (PBS) and mixed sufficiently by gentle shake. 15 mL Lymphoprep™ medium was transferred into a new 50 mL centrifuge tube, and the diluted blood sample (30 mL) was then carefully added onto the surface of the medium, which consequently contained Ficoll 400 and blood in a volume ratio of 1:2. Four interfaces were observed after centrifugation, which are, from top to bottom, layers of plasma, mononuclear cells, Ficoll medium, and red blood cells (RBCs). Plasma was absorbed, and mononuclear cells were then transferred into another new sterile centrifuge tube. Then, sterile PBS buffer was added into the collected PBMCs for washing, at a volume ratio of 3:1. PBMCs were washed with 5-10 mL PBS twice before cell counting with cytometer. Cells were centrifuged at 350×g, for 10 min, at 20° C. with the acceleration (5) and deceleration (5) settings during the centrifugation. The cells were resuspended with RPMI 1640 complete medium (containing 10% FBS) for assay, and the density was adjusted with RPMI 1640 complete medium to the final concentration of 2E6 cells/mL. Cells suspension of the PBMCs (100 μL/well) were seeded into 96-well plate (#3903).
Diluted solutions of the tested compounds were prepared with RPMI 1640 complete medium according to the following layout. Compounds were prepared at 5-fold of concentration (50 μM), and then were diluted to the working concentration of 10 μM with RPMI 1640 complete medium and made 10-fold serially dilution (2 points). The diluted compounds (50 μL/well) were added to the indicated wells, and the plate was incubated at 37° C., 5% CO2, for 72 h.
LPS (0.1 μg/mL, 100 μL) was added into each well. Dex (1 μg/mL) was included as a positive control. Plate was incubated at 37° C., 5% CO2 for 72 h. Supernatant was collected to measure TNF-α by ELISA. Cell proliferation was detected by CTG.
A general note: In an ELISA, binding on a coated surface is turned into a signal by an enzyme label.

Setting [4] is: T47D, 72 h, read-out: IC50 (absolute IC50).
The mark [5] stands for this setting: T47D, 72 hours, 10-pt, 3-fold dilution.

Like-named read-outs stand apart in the source and are kept apart here.

On to `CCCCCc1cc2c(c(O)c1C(=O)NCCN(C)C)[C@@H]1C=C(C)CC[C@H]1C(C)(C)O2` [Ia6, (6aR,0aR)—N-(2-(dimethylamino)ethyl)-1-hydroxy-6,6,9-trimethyl-3-pentyl-6a,7,8,10a-tetrahydro-6H-benzo[c]chromene-2-carboxamide], for which the IC50 in assay [1] is above 10 µM; in assay [2] (setting [4]) it was 6.09 µM. For the same compound, the Inhibition came out at 47.73% in assay [1] and 84.19% in assay [2] (setting [5]). Further, the TNF-α was determined as 17.09 pg/mL in assay [3] (compound 1 μM + 0.1 μg/mL LPS) and 49.73 pg/mL in assay [3] (compound 10 μM + 0.1 μg/mL LPS). The “change of TNF-α expression in LPS-treated cells” value (“change of TNF-α expression” for short) in assay [3] is “increased TNF-α expression”.

Regarding `CCCCCc1cc2c(c(O)c1C(=O)NCCCN1CCOCC1)[C@@H]1C=C(C)CC[C@H]1C(C)(C)O2` [Ia9, (6aR,0aR)-1-hydroxy-6,6,9-trimethyl-N-(3-morpholinopropyl)-3-pentyl-6a,7,8,10a-tetrahydro-6H-benzo[c]chromene-2-carboxamide], the IC50 is 6.72 µM in assay [1] and 5.52 µM in assay [2] (setting [4]). The Inhibition in assay [1] came to 76.40%; in assay [2] (setting [5]), 97.90%. Besides, the TNF-α was determined as 20.26 pg/mL in assay [3] (compound 1 μM + 0.1 μg/mL LPS) and 45.82 pg/mL in assay [3] (compound 10 μM + 0.1 μg/mL LPS). In addition, the “change of TNF-α expression” value in assay [3] is “increased TNF-α expression”.

Consider `C=C(C)[C@@H]1CCC(C)=C[C@H]1c1c(O)cc(CCCCC)c(C(=O)NCCCN2CCOCC2)c1O` [Ia28, (1′R,2′R)-2,6-dihydroxy-5′-methyl-N-(3-morpholinopropyl)-4-pentyl-2′-(prop-1-en-2-yl)-1′,2′,3′,4′-tetrahydro-[1,1′-biphenyl]-3-carboxamide], for which the IC50 in assay [2] (Table 5, T47D cells, 72 hours, read-out: AbsIC50) is above 10 µM. Besides, the Inhibition % in assay [2] (Table 5, T47D cells, 72 hours, 10 μM starting, 10-pt, 3-fold dilution) amounted to 14.85%. Further, the TNF-α turned out to be 41.38 pg/mL in assay [3] (compound 1 μM + 0.1 μg/mL LPS) and 22.35 pg/mL in assay [3] (compound 10 μM + 0.1 μg/mL LPS). Moreover, the “change of TNF-α expression” value in assay [3] was “decreased TNF-α expression”.

On to `CCCCCc1cc2c(c(O)c1C(=O)O)[C@@H]1C=C(C)CC[C@H]1C(C)(C)O2` [THCA, tetrahydrocannabinolic acid, reference compound], for which the IC50 in assay [1] and in assay [2] (setting [4]) was above 10 µM each time. Further, the Inhibition is 5.94% in assay [1] and 18.20% in assay [2] (setting [5]). Further, the TNF-α in assay [3] (compound 1 μM + 0.1 μg/mL LPS) stood at 21.04 pg/mL; in assay [3] (compound 10 μM + 0.1 μg/mL LPS) it was 27.57 pg/mL. The “change of TNF-α expression” value in assay [3] is given as “increased TNF-α expression”.
